In patent US20220265775A1, “COMPOSITIONS AND METHODS FOR TREATING PULMONARY EDEMA OR LUNG INFLAMMATION” (priority 2019, published 2022):

Experiment: Serum total T3 measurement (RIA) in hyperoxia-exposed rats
Type: in vivo, Sprague Dawley rats
Details: rats exposed to 95% oxygen for 60 hours, intraperitoneal T3 supplementation 50 μg/kg bodyweight/24 hours, vs hyperoxia alone
Procedure: FIG. 13. […] Rats were exposed to ˜ 95% of oxygen for 60 hours. […] RA: room air control.
All experimental protocols for animal treatments were approved by the University of Minnesota Institutional Animal Care and Use Committee. […] The room-air control rats were kept in the University animal housing facility. At the end of hyperoxic exposure, rats were sacrificed by intraperitoneal pentobarbital injection, and the lungs were harvested; the right lobes were allocated for histopathology, measurement of lung tissue myeloperoxidase (MPO) activity and wet-to-dry weight ratio. The left lobes underwent bronchoalveolar lavage (BAL) to determine BAL protein concentrations and differential cell counts.
Blood samples were collected at the end of 60 hours of hyperoxia and were centrifuged at 13,000 rpm for 30 minutes at 4° C. Supernatant was stored at −20° C.

For N[C@@H](Cc1cc(I)c(Oc2ccc(O)c(I)c2)c(I)c1)C(=O)O [T3, triiodothyronine], the “serum total T3 level” value was “augmented serum total T3”.
